Results as given in the supplement of paper PMC10883282.

How the values were obtained:
Test in all cases: relative viability vs DMSO control (72 h) (fraction); higher = more viable cells
[1] = system: G401
In short: (§1)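 Relative viability is percent growth read by ATPLite and averaged over up to triplicate wells. Sarcoma cells were seeded in 384-well plates to reach 80–90% confluence and given 2.5 µl of serially diluted compound after 24 h, from source plates of 10 mM to 0.0002 mM. Incubation lasted 72 h at 37 °C, 5% CO2, with 0.1% DMSO vehicle and a 5 µM positive control, and the data were rescaled so 1 equals full and 0 equals none.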

[2] = system: HT1080
In short: as §1

[3] = system: KHOS-240S
In short: as §1

[4] = system: MES-SA
In short: as §1

[5] = system: RD-ES
In short: as §1

[6] = system: RD
In short: as §1

[7] = system: SK-ES-1
In short: as §1

[8] = system: SK-LMS-1
In short: as §1

[9] = system: SW1353
In short: as §1

[10] = system: SW982
In short: as §1

[11] = system: SYO-1
In short: as §1

[12] = system: VA-ES-BJ
In short: as §1

CNC(=O)c1cccc2cc(Oc3ccnc4cc(OCC5(N)CC5)c(OC)cc34)ccc12 [Lucitanib]
Conditions | relative viability
[1], 0.00017 µM | 1.07
[1], 0.00051 µM | 1.04
[1], 0.00152 µM | 1.02
[1], 0.00457 µM | 0.989
[1], 0.01372 µM | 1
[1], 0.04115 µM | 1.01
[1], 0.1235 µM | 0.964
[1], 0.3704 µM | 0.888
[1], 1.111 µM | 0.641
[1], 3.333 µM | 0.451
[1], 10 µM | 0.349
[2], 0.00017 µM | 1.08
[2], 0.00051 µM | 1.09
[2], 0.00152 µM | 1.1
[2], 0.00457 µM | 1.07
[2], 0.01372 µM | 1.1
[2], 0.04115 µM | 1.09
[2], 0.1235 µM | 1.095
[2], 0.3704 µM | 1.09
[2], 1.111 µM | 1.11
[2], 3.333 µM | 1.12
[2], 10 µM | 1.14
[3], 0.00017 µM | 1.1
[3], 0.00051 µM | 1.05
[3], 0.00152 µM | 1.1
[3], 0.00457 µM | 1.06
[3], 0.01372 µM | 1.07
[3], 0.04115 µM | 1.05
[3], 0.1235 µM | 1.02
[3], 0.3704 µM | 0.946
[3], 1.111 µM | 0.817
[3], 3.333 µM | 0.771
[3], 10 µM | 0.632
[4], 0.00017 µM | 0.983
[4], 0.00051 µM | 0.976
[4], 0.00152 µM | 0.965
[4], 0.00457 µM | 0.957
[4], 0.01372 µM | 0.978
[4], 0.04115 µM | 0.955
[4], 0.1235 µM | 0.95
[4], 0.3704 µM | 0.961
[4], 1.111 µM | 0.813
[4], 3.333 µM | 0.615
[4], 10 µM | 0.265
[5], 0.00017 µM | 0.984
[5], 0.00051 µM | 1.01
[5], 0.00152 µM | 1
[5], 0.00457 µM | 1
[5], 0.01372 µM | 0.969
[5], 0.04115 µM | 0.99
[5], 0.1235 µM | 0.981
[5], 0.3704 µM | 0.949
[5], 1.111 µM | 0.92
[5], 3.333 µM | 0.882
[5], 10 µM | 0.798
[6], 0.00017 µM | 1.08
[6], 0.00051 µM | 1.12
[6], 0.00152 µM | 1.1
[6], 0.00457 µM | 1.13
[6], 0.01372 µM | 1.09
[6], 0.04115 µM | 1.129
[6], 0.1235 µM | 1.13
[6], 0.3704 µM | 1.142
[6], 1.111 µM | 1.144
[6], 3.333 µM | 1.12
[6], 10 µM | 0.9078
[7], 0.00017 µM | 1.07
[7], 0.00051 µM | 1.12
[7], 0.00152 µM | 1.09
[7], 0.00457 µM | 1.11
[7], 0.01372 µM | 1.01
[7], 0.04115 µM | 1.07
[7], 0.1235 µM | 1
[7], 0.3704 µM | 1.07
[7], 1.111 µM | 1.01
[7], 3.333 µM | 0.865
[7], 10 µM | 0.531
[8], 0.00017 µM | 1.071
[8], 0.00051 µM | 1.09
[8], 0.00152 µM | 1.056
[8], 0.00457 µM | 1.08
[8], 0.01372 µM | 1.04
[8], 0.04115 µM | 1.03
[8], 0.1235 µM | 0.988
[8], 0.3704 µM | 0.999
[8], 1.111 µM | 0.958
[8], 3.333 µM | 0.8754
[8], 10 µM | 0.758
[9], 0.00017 µM | 1.11
[9], 0.00051 µM | 1.06
[9], 0.00152 µM | 1.04
[9], 0.00457 µM | 1.067
[9], 0.01372 µM | 1.03
[9], 0.04115 µM | 0.967
[9], 0.1235 µM | 0.938
[9], 0.3704 µM | 0.909
[9], 1.111 µM | 0.8515
[9], 3.333 µM | 0.862
[9], 10 µM | 0.874
[10], 0.00017 µM | 1.03
[10], 0.00051 µM | 1.06
[10], 0.00152 µM | 1.06
[10], 0.00457 µM | 1.049
[10], 0.01372 µM | 1.03
[10], 0.04115 µM | 1.05
[10], 0.1235 µM | 1.03
[10], 0.3704 µM | 1.04
[10], 1.111 µM | 1.03
[10], 3.333 µM | 0.972
[10], 10 µM | 0.608
[11], 0.00017 µM | 1.03
[11], 0.00051 µM | 1.04
[11], 0.00152 µM | 1.01
[11], 0.00457 µM | 0.984
[11], 0.01372 µM | 0.919
[11], 0.04115 µM | 0.825
[11], 0.1235 µM | 0.688
[11], 0.3704 µM | 0.561
[11], 1.111 µM | 0.504
[11], 3.333 µM | 0.49
[11], 10 µM | 0.385
[12], 0.00017 µM | 1.08
[12], 0.00051 µM | 1.07
[12], 0.00152 µM | 1.09
[12], 0.00457 µM | 1.091
[12], 0.01372 µM | 1.1
[12], 0.04115 µM | 1.11
[12], 0.1235 µM | 1.12
[12], 0.3704 µM | 1.13
[12], 1.111 µM | 1.16
[12], 3.333 µM | 1.14
[12], 10 µM | 0.914
